Assay results taken from publication PMC7023430, “4-Aminobenzoic Acid Derivatives: Converting Folate Precursor to Antimicrobial and Cytotoxic Agents” (Biomolecules, 2019).
Converted amounts (≈) assume the structure as drawn. Read-outs that look alike come from different tables or passages of the source.

Assays:
[1] = tested on: Staphylococcus aureus ATCC 29213, CCM 4223; test: Antibacterial microdilution broth method, S. aureus; assay type: cell-based
[2] = tested on: methicillin-resistant Staphylococcus aureus ATCC 43300, CCM 4750 (MRSA); test: Antibacterial microdilution broth method, MRSA; assay type: cell-based; details: Staphylococcus aureus
[3] = tested on: Staphylococcus epidermidis H 6966/08; test: Antibacterial microdilution broth method, S. epidermidis; assay type: cell-based; details: Staphylococcus epidermidis, H6966/08, S. epidermidis
[4] = tested on: Enterococcus faecalis ATCC 29212, CCM 4224; test: Antibacterial microdilution broth method, E. faecalis; assay type: cell-based; details: Enterococcus faecalis
[5] = tested on: Escherichia coli ATCC 25922, CCM 3954; test: Antibacterial microdilution broth method, E. coli; assay type: cell-based; details: Escherichia coli
[6] = tested on: Pseudomonas aeruginosa ATCC 27853, CCM 3955; test: Antibacterial microdilution broth method, P. aeruginosa; assay type: cell-based; details: Pseudomonas aeruginosa
[7] = tested on: Mycobacterium tuberculosis H37Rv (331/88); test: Antimycobacterial micromethod in Šula's medium, M. tuberculosis; assay type: cell-based
[8] = tested on: Mycobacterium avium 330/88; test: Antimycobacterial micromethod in Šula's medium, M. avium; assay type: cell-based
[9] = tested on: Mycobacterium kansasii 235/80; test: Antimycobacterial micromethod in Šula's medium, M. kansasii 235/80; assay type: cell-based
[10] = tested on: M. kansasii 6509/96 (clinical isolate); test: Antimycobacterial micromethod in Šula's medium, M. kansasii 6509/96; assay type: cell-based; details: Mycobacterium kansasii
[11] = tested on: Candida albicans ATCC 44859; test: Antifungal microdilution broth method, C. albicans; assay type: cell-based
Protocol: (§1) The antifungal properties were evaluated against five yeast strains, namely: Candida albicans ATCC 44859, Candida tropicalis 156, Candida krusei […], Candida glabrata 20/I, Trichosporon […] 1188 and three strains of filamentous fungi: Aspergillus fumigatus 231, Lichtheimia corymbifera 272, and Trichophyton interdigitale 445. A microdilution broth method was performed according to EUCAST II, III instructions with slight modifications. Briefly, tested compounds were dissolved in DMSO and diluted in a twofold manner with RPMI-1640 medium with L-glutamine, supplemented with 2% glucose (w/v) and buffered to pH 7.0 with 3 morpholinopropane-1-sulfonic acid (all components were purchased from Sigma-Aldrich, USA). […] Positive controls consisted of test microbe solely, while negative controls consisted of medium and DMSO. Internal quality control was included too. Visual inspection was used for MIC endpoints evaluation. The experiments were conducted in duplicates. For the results to be valid, the difference in MIC determined from two parallel measurements must not be greater than one step on the dilution scale. PABA and triazole antimycotic drug fluconazole were involved as the reference compounds.

Candida tropicalis 156 = test: Antifungal microdilution broth method, C. tropicalis; assay type: cell-based
Protocol: as §1

Candida krusei E28 = test: Antifungal microdilution broth method, C. krusei; assay type: cell-based; details: Pichia kudriavzevii
Protocol: as §1

Candida glabrata 20/I = test: Antifungal microdilution broth method, C. glabrata; assay type: cell-based; details: Nakaseomyces glabratus
Protocol: as §1

Trichosporon asahii 1188 = test: Antifungal microdilution broth method, T. asahii; assay type: cell-based
Protocol: as §1

[12] = tested on: Aspergillus fumigatus 231; test: Antifungal microdilution broth method, A. fumigatus; assay type: cell-based
Protocol: as §1

[13] = tested on: Lichtheimia corymbifera 272; test: Antifungal microdilution broth method, L. corymbifera; assay type: cell-based
Protocol: as §1

[14] = tested on: Trichophyton interdigitale 445; test: Antifungal microdilution broth method, T. interdigitale; assay type: cell-based
Protocol: as §1

[15] = tested on: four Gram-positive and four Gram-negative strains; test: Antibacterial activity; assay type: cell-based; details: time not stated
[16] = tested on: Mtb. 331/88 and three non-tuberculous mycobacterial strains; test: Antimycobacterial activity; assay type: cell-based; details: statement over four mycobacterial strains; time not stated
eight fungal strains = test: Antifungal activity; assay type: cell-based; details: statement over the fungal panel; time not stated
Protocol: as §1

[17] = tested on: ESBL-positive Klebsiella pneumoniae J 14368/08
[18] = tested on: Klebsiella pneumoniae D 11750/08; test: Antibacterial microdilution broth method, K. pneumoniae; details: K. pneumoniae D 11750/08; for MIC KP 24 h: 24 h incubation; for MIC KP 48 h: 48 h incubation
[19] = 24 h incubation, read-out: MIC SA 24 h
[20] = 48 h incubation, read-out: MIC SA 48 h
[21] = 24 h incubation, read-out: MIC MRSA 24 h
[22] = 48 h incubation, read-out: MIC MRSA 48 h
[23] = 24 h incubation, read-out: MIC SE 24 h
[24] = 48 h incubation, read-out: MIC SE 48 h
[25] = 24 h incubation, read-out: MIC EF 24 h
[26] = 48 h incubation, read-out: MIC EF 48 h
[27] = 24 h incubation, read-out: MIC EC 24 h
[28] = 48 h incubation, read-out: MIC EC 48 h
[29] = P. aeruginosa, 24 h incubation, read-out: MIC PA 24 h
[30] = P. aeruginosa, 48 h incubation, read-out: MIC PA 48 h
[31] = 336 h, 14 days incubation at 37 °C, read-out: MIC Mtb. 331/88 14 d
[32] = 504 h, 21 days incubation at 37 °C, read-out: MIC Mtb. 331/88 21 d
[33] = 330/88, 336 h, 14 days incubation at 37 °C, read-out: MIC M. avium 330/88 14 d
[34] = 330/88, 504 h, 21 days incubation at 37 °C, read-out: MIC M. avium 330/88 21 d
[35] = 235/80, 168 h, 7 days incubation at 37 °C, read-out: MIC M. kansasii 235/80 7 d
[36] = 235/80, 336 h, 14 days incubation at 37 °C, read-out: MIC M. kansasii 235/80 14 d
[37] = 235/80, 504 h, 21 days incubation at 37 °C, read-out: MIC M. kansasii 235/80 21 d
[38] = 168 h, 7 days incubation at 37 °C, read-out: MIC M. kansasii 6509/96 7 d
[39] = 336 h, 14 days incubation at 37 °C, read-out: MIC M. kansasii 6509/96 14 d
[40] = 504 h, 21 days incubation at 37 °C, read-out: MIC M. kansasii 6509/96 21 d
[41] = ATCC44859, 24 h, read-out: MIC CA 24 h
[42] = ATCC44859, 48 h, read-out: MIC CA 48 h

## O=C(O)c1ccc(N=Cc2ccccc2O)cc1 [1a, 4-[(2-Hydroxybenzylidene)amino]benzoic acid]
[1]; [19]
  MIC: > 500 µM
[1]; [20]
  MIC: > 500 µM
[2]; [21]
  MIC: > 500 µM
[2]; [22]
  MIC: > 500 µM
[3]; [23]
  MIC: > 500 µM
[3]; [24]
  MIC: > 500 µM
[4]; [25]
  MIC: > 500 µM
[4]; [26]
  MIC: > 500 µM
[5]; [27]
  MIC: > 500 µM
[5]; [28]
  MIC: > 500 µM
[6]; [29]
  MIC: > 500 µM
[6]; [30]
  MIC: > 500 µM
[7]; [31]
  MIC: > 1000 µM
[7]; [32]
  MIC: > 1000 µM
[8]; [33]
  MIC: > 1000 µM
[8]; [34]
  MIC: > 1000 µM
[9]; [35]
  MIC: 1000 µM (≈ 241 µg/mL)
[9]; [36]
  MIC: > 1000 µM
[9]; [37]
  MIC: > 1000 µM
[10]; [38]
  MIC: 1000 µM (≈ 241 µg/mL)
[10]; [39]
  MIC: 1000 µM (≈ 241 µg/mL)
[10]; [40]
  MIC: 1000 µM (≈ 241 µg/mL)
[11]; [41]
  MIC: > 500 µM
[11]; [42]
  MIC: > 500 µM
Candida tropicalis 156; 24 h, read-out: MIC CT 24 h
  MIC: > 500 µM
Candida tropicalis 156; 48 h, read-out: MIC CT 48 h
  MIC: > 500 µM
Candida krusei E28; 24 h, read-out: MIC CK 24 h
  MIC: > 500 µM
Candida krusei E28; 48 h, read-out: MIC CK 48 h
  MIC: > 500 µM
Candida glabrata 20/I; 24 h, read-out: MIC CG 24 h
  MIC: > 500 µM
Candida glabrata 20/I; 48 h, read-out: MIC CG 48 h
  MIC: > 500 µM
Trichosporon asahii 1188; 24 h, read-out: MIC TA 24 h
  MIC: > 500 µM
Trichosporon asahii 1188; 48 h, read-out: MIC TA 48 h
  MIC: > 500 µM
[12]; 24 h, read-out: MIC AF 24 h
  MIC: > 500 µM
[12]; 48 h, read-out: MIC AF 48 h
  MIC: > 500 µM
[13]; 24 h, read-out: MIC LC 24 h
  MIC: > 500 µM
[13]; 48 h, read-out: MIC LC 48 h
  MIC: > 500 µM
[14]; 72 h, read-out: MIC TI 72 h
  MIC: > 500 µM
[14]; 120 h, read-out: MIC TI 120 h
  MIC: > 500 µM
[15]; statement over the bacterial panel
  MIC, antibacterial activity: avoided any antibacterial action
[16]
  MIC, antimycobacterial activity: only negligible antimycobacterial activity
Eight fungal strains
  MIC, antifungal activity: no antimycotic potency
[17]
  MIC KP-E 24 h: >500 µM
  MIC KP-E 48 h: >500 µM
[18]
  MIC KP 24 h: >500 µM
  MIC KP 48 h: >500 µM

## O=C(O)c1ccc(N=Cc2cc(O)ccc2O)cc1 [1i, 4-[(2,5-Dihydroxybenzylidene)amino]benzoic acid]
[1]; [19]
  MIC: 500 µM (≈ 129 µg/mL)
[1]; [20]
  MIC: 500 µM (≈ 129 µg/mL)
[2]; [21]
  MIC: 250 µM (≈ 64.3 µg/mL)
[2]; [22]
  MIC: 250 µM (≈ 64.3 µg/mL)
[3]; [23]
  MIC: 250 µM (≈ 64.3 µg/mL)
[3]; [24]
  MIC: 250 µM (≈ 64.3 µg/mL)
[4]; [25]
  MIC: 500 µM (≈ 129 µg/mL)
[4]; [26]
  MIC: 500 µM (≈ 129 µg/mL)
[5]; [27]
  MIC: > 500 µM
[5]; [28]
  MIC: > 500 µM
[6]; [29]
  MIC: 500 µM (≈ 129 µg/mL)
[6]; [30]
  MIC: 500 µM (≈ 129 µg/mL)
[6]; time not stated, read-out: MIC, P. aeruginosa
  MIC: 500 µM (≈ 129 µg/mL)
[7]; [31]
  MIC: 500 µM (≈ 129 µg/mL)
[7]; [32]
  MIC: 1000 µM (≈ 257 µg/mL)
[8]; [33]
  MIC: 1000 µM (≈ 257 µg/mL)
[8]; [34]
  MIC: > 1000 µM
[9]; [35]
  MIC: 500 µM (≈ 129 µg/mL)
[9]; [36]
  MIC: 500 µM (≈ 129 µg/mL)
[9]; [37]
  MIC: 1000 µM (≈ 257 µg/mL)
[10]; [38]
  MIC: 500 µM (≈ 129 µg/mL)
[10]; [39]
  MIC: 1000 µM (≈ 257 µg/mL)
[10]; [40]
  MIC: 1000 µM (≈ 257 µg/mL)
[11]; [41]
  MIC: 500 µM (≈ 129 µg/mL)
[11]; [42]
  MIC: 500 µM (≈ 129 µg/mL)
Candida tropicalis 156; 24 h, read-out: MIC CT 24 h
  MIC: > 500 µM
Candida tropicalis 156; 48 h, read-out: MIC CT 48 h
  MIC: > 500 µM
Candida krusei E28; 24 h, read-out: MIC CK 24 h
  MIC: > 500 µM
Candida krusei E28; 48 h, read-out: MIC CK 48 h
  MIC: > 500 µM
Candida glabrata 20/I; 24 h, read-out: MIC CG 24 h
  MIC: 250 µM (≈ 64.3 µg/mL)
Candida glabrata 20/I; 48 h, read-out: MIC CG 48 h
  MIC: 250 µM (≈ 64.3 µg/mL)
Trichosporon asahii 1188; 24 h, read-out: MIC TA 24 h
  MIC: > 500 µM
Trichosporon asahii 1188; 48 h, read-out: MIC TA 48 h
  MIC: > 500 µM
[12]; 24 h, read-out: MIC AF 24 h
  MIC: > 500 µM
[12]; 48 h, read-out: MIC AF 48 h
  MIC: > 500 µM
[13]; 24 h, read-out: MIC LC 24 h
  MIC: > 500 µM
[13]; 48 h, read-out: MIC LC 48 h
  MIC: > 500 µM
[14]; 72 h, read-out: MIC TI 72 h
  MIC: > 500 µM
[14]; 120 h, read-out: MIC TI 120 h
  MIC: > 500 µM
[15]; Staphylococcus aureus, MRSA, read-out: MIC, multiple Gram-positive strains including MRSA
  MIC: ≥ 250 µM
Eight fungal strains
  MIC: ≥ 250 µM
[17]
  MIC KP-E 24 h: 500 µM (≈ 129 µg/mL)
  MIC KP-E 48 h: 500 µM (≈ 129 µg/mL)
[18]
  MIC KP 24 h: 500 µM (≈ 129 µg/mL)
  MIC KP 48 h: 500 µM (≈ 129 µg/mL)
